From patent publication US5858968A, “Method of treating or preventing type 1 diabetes by oral administration of insulin” (AutoImmune Inc., priority 1995, dated 1999)
“And” between values parts separate entries of the source, which are not always exact repeats. Equal values may be shown once. “Also recorded” adds a separate entry of the source.

Columns and labels:
Type in all cases: in vivo
NOD mice [1] = assay: Effect of feeding porcine insulin on spontaneous diabetes in NOD mice
From the text: NOD (non-obese diabetic mice) were obtained from Taconic Laboratories (Germantown, Mass.) at 4 weeks of age. There were a total of 30 animals in each of the groups mentioned below at the beginning of the experiment. At 4 1/2 weeks of age, animals were orally administered Porcine insulin (Novo Laboratories, Danbury, Conn.). Each animal received two treatments orally twice a week until 9 weeks of age. The mice were fed either saline (control) or 10 micrograms, 100 micrograms, or 1 milligram of Porcine insulin. The animals were fed (gavaged) with an 18 gauge ball-point needle (Popper and Sons, Inc., New Hyde Park, N.Y.). Beginning at 10 weeks the animals were then fed once a week for a total of 33 weeks. Beginning at 12 weeks the urine was tested weekly for the presence of glucose using Glucosuria test tape (Eli Lilly, Indianapolis, Ind.). If an animal tested 3+or higher on the glucose urine test, a serum sample was taken and blood glucose measured using a glucose analyzer (Beckman). If the blood glucose was 220 or higher, the animals were classified as diabetic and then sacrificed.

NOD mice [2] = assay: Treatment of initial stages of diabetes in NOD mice; conditions: oral and aerosol administration, 0 to 1 mg, hyperglycemic NOD mice
Method: Insulin (0 to 1 mg as in Examples 1 and 2) will be administered to NOD mice which are suffering from hyperglycemia in an oral and aerosol form. The treatments will begin by weeks 12-20 of age, by which the serum glucose levels are at hyperglycemic concentrations in a certain percentage of animals prior to onset of diabetes.

NOD mice [3] = assay: Insulitis in NOD mice fed insulin (preliminary experiments); conditions: NOD mice fed 1 mg, vs PBS-fed NOD mice; data not shown
From the text: Therefore, oral administration of insulin to NOD mice appeared to be affecting the infiltration of immune system cells into the pancreas and thus halting disease progression by preserving beta cell function.

NOD mice [4] = assay: Glucose post oral insulin in fasting 7 week NOD mice; conditions: fasting 7 week old NOD mice
Method: In order to determine whether any endocrinologic (i.e. direct lowering of blood sugar) effects occurred following the feeding of insulin, 7 week old NOD mice (5 mice per group) were fed 1 mg of porcine insulin or 1 mg of myelin basic protein (obtained from Pel Freez, Rogers, Ariz.) as a control protein. Blood glucose was then measured over the next 24 hour period. As a positive control, a separate group of animals were injected subcutaneously with 20 micrograms of Porcine insulin. All animals were kept in the fasting state.

[5] = subcutaneous injection of 20 micrograms

| Molecule | development of diabetes (NOD mice [1]; NOD mice fed 1 mg insulin orally (gavage), vs saline control, diabetic = blood glucose 220 or higher) | development of diabetes (NOD mice [1]; NOD mice fed 10 micrograms insulin orally, dose response fashion) | blood sugar in individual animals which developed diabetes (NOD mice [1]; NOD mice fed 10 micrograms of insulin) | development of diabetes (NOD mice [1]; NOD mice fed 100 micrograms insulin orally, dose response fashion) | blood sugar in individual animals that became diabetic (NOD mice [1]; NOD mice fed 100 micrograms of insulin) | incidence of diabetes (NOD mice [1]; NOD mice, all doses of orally administered insulin, dose-dependent) | treated animals that failed to develop diabetes (NOD mice [1]; NOD mice, highest dose of oral insulin (1 mg)) | beta cell function (NOD mice [2]) | serum glucose concentrations (NOD mice [2]) | inflammatory immune system cells surrounding the pancreas (insulitis) (NOD mice [3]) | blood glucose after feeding (NOD mice [4]; 1 mg oral) | blood glucose over the next 24 hours (NOD mice [4]; 1 mg oral) | endocrinologic (metabolic) effects (NOD mice [4]; 1 mg oral) | decrease in glucose level (NOD mice [4]; [5]) | period over which the glucose decrease persisted (NOD mice [4]; [5]) |
| --- | --- | --- | --- | --- | --- | --- | --- | --- | --- | --- | --- | --- | --- | --- | --- |
| insulin: Porcine insulin (Novo Laboratories, Danbury, Conn.), given orally by gavage, subcutaneously as positive control, or planned as aerosol | none of the mice went on to develop diabetes; also recorded: no diabetes developed; also recorded: None of the animals developed diabetes | diabetes developed | 330 mg/dL and 420 mg/dL and 315 mg/dL and 459 mg/dL and 520 mg/dL and 487 mg/dL | diabetes developed | 500 mg/dL and 290 mg/dL and 600 mg/dL and 450 mg/dL | lower incidence of diabetes; also recorded: reduced the numbers of these mice which subsequently went on to develop diabetes | 100% | preservation of beta cell function | reduction in serum glucose concentrations to near normal levels | fewer inflammatory immune system cells surrounding the pancreas | no drop in the blood glucose | gradual decrease in blood glucose | no endocrinologic (metabolic) effects | approximately 80 mg % | 4 h |
| myelin basic protein: myelin basic protein (obtained from Pel Freez, Rogers, Ariz.) fed as a control protein (protein, UniProt P02686 1-304, looked up) Myelin basic protein: MGNHAGKRELNAEKASTNSETNRGESEKKRNLGELSRTTSEDNEVFGEADANQNNGTSSQDTAVTDSKRTADPKNAWQDAHPADPGSRPHLIRLFSRDAPGREDNTFKDRPSESDELQTIQEDSAATSESLDVMASQKRPSQRHGSKYLATASTMDHARHGFLPRHRDTGILDSIGRFFGGDRGAPKRGSGKDSHHPARTAHYGSLPQKSHGRTQDENPVVHFFKNIVTPRTPPPSQGKGRGLSLSRFSWGAEGQRPGFGYGGRASDYKSAHKGFKGVDAQGTLSKIFKLGGRDSRSGSPMARR |  |  |  |  |  |  |  |  |  |  | no drop in the blood glucose | gradual decrease in blood glucose |  |  |  |
